Results reported in US11591569B2, “Methods for epicardial differentiation of human pluripotent stem cells” (Wisconsin Alumni Research Foundation, priority 2015, dated 2023).

Columns and labels:
Assay type in all cases: cell-based, human
[1] = test system: hPSC-derived cardiac progenitors; test: Epicardial (WT1+) differentiation of hPSC-derived cardiac progenitors, flow cytometry at day 12; conditions: for WT1+ cell differentiation compared with 3 μM CHIR99021: 0.3 μM, day 7 to day 9, GiWiGi protocol, flow cytometry at day 12; for cTnT+WT1+ cells: day 6 progenitors treated day 7 to day 9, day 12 flow cytometry
Experimental: Epicardial Cell Generation Via Activation of Canonical Wnt Signaling: At day 6, cardiac progenitor cells were singularized with Accutase at 37° C. for 5 minutes and then seeded onto a gelatin-coated cell culture dish at 20,000-80,000 cells/cm^2 in LaSR basal medium (advanced DMEM/F12 with 100 μg/mL ascorbic acid) or RPMI/Vc/Ins medium (100 μg/mL ascorbic acid and 1 μg/mL human recombinant or bovine insulin (Sigma)) with 5 μM ROCK inhibitor Y-27632 for 24 hours. […] Data were collected on a FACSCaliber flow cytometer (Beckton Dickinson) and analyzed using FlowJo. FACS gating was based on the corresponding isotype antibody control. Pro-epicardium arises from ISL1+NKX2.5+ second heart field progenitors in vivo^1,41.

[2] = test system: hPSC-derived epicardial cells; test: Long-term expansion of hPSC-derived epicardial cells
Experimental: Long-Term Maintenance of hPSC-Derived Epicardial Cells: To expand the epicardial cells, confluent cells on day 3 or 4 of differentiation were split 1:3 at a density of 0.04 to 0.08 million cells/cm^2 using Versene (Life Technologies) or Accutase and routinely passaged onto gelatin-coated plates in LaSR basal medium or RPMI/Vc/Ins medium and 0.5 μM A83-01 (Stemgent) or 2 μM SB431542 (Stemgent) with medium changed daily until the cells reached confluence. Overnight treatment of 5 μM Y27632 and 1% human recombinant albumin (Sigma-Aldrich) on single cells during passage was used to improve cell attachment and survival, but they were not required once cells attached.
Flow Cytometry Analysis: Cells were dissociated into single cells with Accutase for 10 minutes and then fixed with 1% paraformaldehyde for 20 minutes at room temperature and stained with primary and secondary antibodies (Table 1) in PBS plus 0.1% Triton X-100 and 0.5% BSA. Data were collected on a FACSCaliber flow cytometer (Beckton Dickinson) and analyzed using FlowJo. FACS gating was based on the corresponding isotype antibody control.

[3] = test system: hPSC-derived epicardial cells; test: EMT induction of hPSC-derived epicardial cells; conditions: 10 ng/mL bFGF, 5 ng/mL TGFβ1; for Cell morphology after treatment: H13 hESC-derived epicardial cells, day 18; for Expression of WT1 and ZO1: immunostaining; for EMT (CDH1 decreased, CDH2 and SNAIL2 increased versus untreated controls): qPCR and E-cadherin immunostaining
Experimental: Single Cell Passage and EMT Induction: Confluent WT1+ cells were dissociated into single cells with Accutase at 37° C. for 5 minutes and then seeded onto a gelatin-coated cell culture dish at 10,000 cells/cm^2 in LaSR basal medium supplemented with 5 μM ROCK inhibitor Y-27632 for 24 hr. After 24 hours, medium was changed to LaSR basal medium and cells were treated with TGFβ1 or bFGF (R&D Systems) as indicated. Medium was changed every 3 days until analysis.
Immunostaining Analysis: Cells were fixed with 4% paraformaldehyde for 15 minutes at room temperature and then stained with primary and secondary antibodies (Table 1) in PBS plus 0.4% Triton X-100 and 5% non-fat dry milk (Bio-Rad). Nuclei were stained with Gold Anti-fade Reagent with DAPI (Invitrogen). An epifluorescence microscope (Leica DM IRB) with a QImaging® Retiga 4000R camera was used for imaging analysis.
(§1) RT-PCR and Quantitative RT-PCR: Total RNA was prepared with the RNeasy mini kit (QIAGEN) and treated with DNase (QIAGEN). 1 μg RNA was reverse transcribed into cDNA via Oligo (dT) with Superscript III Reverse Transcriptase (Invitrogen). Real-time quantitative PCR was done in triplicate with iQSYBR Green SuperMix (Bio-Rad). GAPDH was used as an endogenous housekeeping control.

[4] = test system: hPSCs; test: Cardiac progenitor induction from hPSCs, gene expression by quantitative RT-PCR; conditions: 6 μM CHIR99021 at day 0 in RPMI medium, H13 hESCs
Experimental: Cardiac Progenitor Induction Via Modulation of Canonical Wnt Signaling: When hPSCs maintained on a SyntheMax-coated surface achieved confluence, cells were singularized with Accutase (Innovative Cell Technologies) at 37° C. for 5 minutes and then seeded onto a SyntheMax-coated cell culture dish at 250,000 cells/cm^2 in mTeSR1 or E8 supplemented with 5 μM ROCK inhibitor Y-27632 (Selleckchem) (day −3) for 24 hours. Cells were then cultured in mTeSR1 or E8, changed daily. At day 0, cells were treated with 6 μM CHIR99021 (Selleckchem) for 24 hours in RPMI medium, followed by a change with RPMI medium at day 1. 2.5-5 μM IWP2 (Tocris) was added at day 3 and removed during the medium change at day 5.
as §1

[5] = day 6 ISL1+NKX2.5+ progenitors treated 48 hours (day 7 to day 9), H13 hESC-derived day 12 cultures, concentrations per Table 3

BIO-acetoxime
WT1+ cell differentiation compared with 3 μM CHIR99021 [1]: induced WT1+ cell differentiation to a similar extent as 3 μM CHIR99021

CC1=C(/C=C/C(C)=C/C=C/C(C)=C/C(=O)O)C(C)(C)CCC1 [retinoic acid]
WT1+ cells [1, 5]: about 10% | cTnT+WT1+ cells [1]: 2%

Cc1cccc(-c2nn(C(=S)Nc3ccccc3)cc2-c2ccnc3ccccc23)n1 [A83-01]
Expandability of epicardial cells from additional hPSC lines ([2]; 19-9-11 iPSC-derived epicardial cells, 0.5 μM A83-01): expandable | Expansion with retention of epithelial morphology and WT1 expression ([2]; H13 hESC-derived day 18 epicardial cells, treated 3 days, 0.5 μM): enabled expansion of hPSC-derived epicardial cells that retained polarized epithelial morphology and WT1 expression

TGFβ: TGFβ pathway protein modulator (R&D Systems)
Cell morphology after treatment [3]: fusiform-shaped appearance | Expression of WT1 and ZO1 [3]: significantly decreased | EMT (CDH1 decreased, CDH2 and SNAIL2 increased versus untreated controls) [3]: induced EMT

c1cc(-c2cnn3cc(-c4ccc(OCCN5CCCCC5)cc4)cnc23)ccn1 [dorsomorphin]
WT1+ cells [1, 5]: about 10% | cTnT+WT1+ cells [1]: 2%

Cc1c[nH]c(-c2cnc(NCCNc3ccc(C#N)cn3)nc2-c2ccc(Cl)cc2Cl)n1 [CHIR99021]
Gene expression changes in the first 24 hr after addition [4]: down-regulation of the pluripotency markers OCT4 and NANOG, and induction of the primitive streak like gene T | WT1+ cells ([1]; 3 μM CHIR, initial density 0.06 million cells per cm^2, LaSR basal medium, day 12): more than 95% | WT1+ cells [1, 5]: more than 85%

bFGF: FGF pathway protein modulator (R&D Systems)
Cell morphology after treatment [3]: fibroid spindle | Expression of WT1 and ZO1 [3]: significantly decreased | EMT (CDH1 decreased, CDH2 and SNAIL2 increased versus untreated controls) [3]: induced EMT

CHIR98014
WT1+ cell differentiation compared with 3 μM CHIR99021 [1]: induced WT1+ cell differentiation to a similar extent as 3 μM CHIR99021

B1: Bone Morphogenetic Protein 4 (protein, UniProt P12644 293-408, looked up)
Bone morphogenetic protein 4: SPKHHSQRARKKNKNCRRHSLYVDFSDVGWNDWIVAPPGYQAFYCHGDCPFPLADHLNSTNHAIVQTLVNSVNSSIPKACCVPTELSAISMLYLDEYDKVVLKNYQEMVVEGCGCR
notes: TGFβ superfamily growth factor
Cell population obtained in the presence of CHIR ([1]; co-treatment with CHIR (2 μM CHIR99021, FIG. 10), day 7 to day 9, day 12 flow cytometry of cTnT and WT1): yielded an unknown population at the expense of WT1+ cells | WT1+ cells [1, 5]: about 10% | cTnT+WT1+ cells [1]: 2%
